Experimental data from US20220401369A1, “SOLID DISPERSION OF PAN-RAF KINASE INHIBITOR” (DAY ONE BIOPHARMACEUTICALS, INC., priority 2019, published 2022).
Values after ≈ are worked out from the molar mass of the structure shown. Read-outs that look alike come from different tables or passages of the source.

Key:
[1] = Polymer screening by DSC (miscibility of Compound 1 in polymer); assay type: physicochemical
Procedure: Differential Scanning calorimetry (DSC) and Oil bath methods were applied to study solid dispersions comprising Compound 1. DSC is applied for the prediction of miscibility and solubility of Compound 1 in polymer.
Pure crystalline drug Compound 1 was physically mixed with each pure polymer. The equilibrium solution temperature (Tend) and Enthalpy (H) of Compound 1 in each 20% Compound 1 loaded physical mixture (PM) were measured for polymer screening by DSC (Discovery™ DSC, TA Instruments) with following steps;
−20° C. to over MP (melting point) of Compound 1 (206° C.) @1° C./min
From the endothermic peak of DSC, H and Tend were analyzed, and the change ratio A E between pure Compound 1 and PM was defined as miscibility parameters (Eq. 1). […] Therefore, the lower A E means the higher miscibility.

[2] = Solubility (24 h, 37° C.) in JP1 and JP2; assay type: physicochemical; conditions: thermodynamic from solid
[3] = 20% Compound 1 loaded physical mixture with polymer, pure Compound 1 as reference

DSC H (enthalpy) [1, 3]: 102.52 J/g
DSC Tend (equilibrium solution temperature) [1, 3]: 209.958 °C
DSC ΔE (miscibility parameter) ([1]; 20% Compound 1 loaded physical mixture, lower ΔE means higher miscibility): 2.00
solubility at 24 h ([2]; aqueous buffer, JP2 (pH 6.8), Table 2, read-out: Solubility JP2): 1.1 µg/mL (≈ 2.17 µM)
solubility at 24 h ([2]; simulated gastric fluid, JP1 (pH 1.2), Table 2, read-out: Solubility JP1): 3.4 µg/mL (≈ 6.72 µM)
SMILES: C[C@@H](NC(=O)c1ncnc(N)c1Cl)c1ncc(C(=O)Nc2cc(C(F)(F)F)c(Cl)cn2)s1 [Compound 1, (R)-2-(1-(6-amino-5-chloropyrimidine-4-carboxamido)ethyl)-N-(5-chloro-4-(trifluoromethyl)pyridin-2-yl)thiazole-5-carboxamide]
